Measured values taken from US5462926A (Biomeasure, Inc., priority 1993, dated 1995).
Where a SMILES comes first, the peptide text is derived from it. Bridges are numbered along the chain shown (N, C = ends). [ ]: non-standard residue; d: D form. 2Nal = N[C@@H](Cc1ccc2ccccc2c1)C(=O)O; d2Nal = N[C@H](Cc1ccc2ccccc2c1)C(=O)O

Assays:
Assay type in all cases: binding
Conditions in all cases: 1 μM
TRH receptor = assay: TRH membrane assay, rat forebrain
sigma opioid receptor = target: T1, sigma opioid receptor (Cavia porcellus, UniProt Q60492); assay: Sigma opioid membrane receptor assay, guinea pig cerebral
T1 construct: guinea pig cerebral (N1, histamine H1, and sigma opioid membrane receptor assays); from tissue; host or cells: guinea pig cerebral membranes
T1 sequence (Q60492 whole entry): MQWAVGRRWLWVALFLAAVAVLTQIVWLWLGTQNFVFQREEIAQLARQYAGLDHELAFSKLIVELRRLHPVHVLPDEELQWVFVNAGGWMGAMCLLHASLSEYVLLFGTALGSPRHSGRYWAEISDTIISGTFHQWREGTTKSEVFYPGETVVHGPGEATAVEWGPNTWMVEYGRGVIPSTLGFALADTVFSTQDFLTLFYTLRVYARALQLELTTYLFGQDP

endothelinA = target: T2, endothelinA (Rattus norvegicus, UniProt P26684); assay: EtA membrane receptor assay, A10 smooth muscle cells
T2 construct: A10 smooth muscle cells (EtA membrane receptor assay); endogenous in cells; host or cells: A10 smooth muscle cells (membranes)
T2 sequence (P26684 21-426): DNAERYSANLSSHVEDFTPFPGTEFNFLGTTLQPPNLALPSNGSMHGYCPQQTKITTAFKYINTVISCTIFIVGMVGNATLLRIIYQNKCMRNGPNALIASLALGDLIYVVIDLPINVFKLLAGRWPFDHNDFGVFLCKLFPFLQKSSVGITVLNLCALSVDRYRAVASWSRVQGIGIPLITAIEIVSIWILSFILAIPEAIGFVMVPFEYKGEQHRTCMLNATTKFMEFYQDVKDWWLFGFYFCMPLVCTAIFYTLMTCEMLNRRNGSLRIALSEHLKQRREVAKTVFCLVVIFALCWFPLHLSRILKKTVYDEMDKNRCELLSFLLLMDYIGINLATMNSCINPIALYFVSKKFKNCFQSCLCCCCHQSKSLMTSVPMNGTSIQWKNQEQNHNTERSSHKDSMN

[1] = test system: benzodiazepine-neural receptor; assay: Neural benzodiazepine membrane receptor assay, rat cerebral cortex
delta opioid receptor = target: T3, delta opioid receptor (Rattus norvegicus, UniProt P33533); assay: Delta opioid membrane assay, rat forebrain
T3 construct: rat forebrain (TRH, mu and delta opioid membrane assays); from tissue; host or cells: rat forebrain membranes
T3 sequence (P33533 whole entry): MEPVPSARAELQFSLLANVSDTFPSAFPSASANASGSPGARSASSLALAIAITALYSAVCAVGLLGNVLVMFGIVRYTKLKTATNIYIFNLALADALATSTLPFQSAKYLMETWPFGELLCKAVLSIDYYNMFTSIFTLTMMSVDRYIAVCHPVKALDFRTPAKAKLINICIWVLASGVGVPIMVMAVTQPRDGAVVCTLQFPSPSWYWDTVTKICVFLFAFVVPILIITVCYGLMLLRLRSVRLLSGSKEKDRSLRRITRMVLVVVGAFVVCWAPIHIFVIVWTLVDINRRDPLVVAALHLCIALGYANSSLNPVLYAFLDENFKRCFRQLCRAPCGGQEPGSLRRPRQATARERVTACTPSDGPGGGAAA

[2] = target: T4, benzodiazepine-peripheral receptor (Rattus norvegicus, UniProt P16257); assay: Peripheral benzodiazepine membrane receptor assay, rat cerebral cortex
T4 construct: from tissue; host or cells: rat cerebral cortex membranes
T4 sequence (P16257 whole entry): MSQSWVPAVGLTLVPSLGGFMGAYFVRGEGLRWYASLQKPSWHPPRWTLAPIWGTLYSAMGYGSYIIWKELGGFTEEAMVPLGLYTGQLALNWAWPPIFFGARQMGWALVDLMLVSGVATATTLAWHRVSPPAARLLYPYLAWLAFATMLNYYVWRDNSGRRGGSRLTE

β1-adrenergic receptor = target: T5, β1-adrenergic receptor (Homo sapiens, UniProt P08588); assay: β1-adrenergic membrane receptor assay, [3H]dihydroalprenolol
T5 construct: receptors on plasma membranes on various tissues determined as described in METHODS; from tissue; host or cells: plasma membranes
T5 sequence (P08588 whole entry): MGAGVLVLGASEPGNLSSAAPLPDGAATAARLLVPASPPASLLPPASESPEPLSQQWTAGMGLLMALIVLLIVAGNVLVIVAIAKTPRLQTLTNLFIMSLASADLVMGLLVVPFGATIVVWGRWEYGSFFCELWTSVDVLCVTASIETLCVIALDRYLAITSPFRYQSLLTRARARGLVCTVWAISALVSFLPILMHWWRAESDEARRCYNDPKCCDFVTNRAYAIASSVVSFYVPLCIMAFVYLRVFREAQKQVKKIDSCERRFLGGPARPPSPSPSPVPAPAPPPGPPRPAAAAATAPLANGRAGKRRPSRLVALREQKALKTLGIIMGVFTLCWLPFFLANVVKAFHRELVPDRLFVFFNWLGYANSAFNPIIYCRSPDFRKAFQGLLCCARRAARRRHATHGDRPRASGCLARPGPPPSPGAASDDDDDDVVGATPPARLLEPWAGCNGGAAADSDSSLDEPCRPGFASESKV

[3] = test system: muscarinic cholinergic receptor; assay: Muscarinic cholinergic membrane receptor assay, rat cerebral cortex

CC(C)[C@@H]1NC(=O)[C@H](CCCCN)NC(=O)[C@@H](Cc2c[nH]c3ccccc23)NC(=O)[C@H](Cc2ccc(O)cc2)NC(=O)[C@@H](NC(=O)[C@H](N)Cc2ccc3ccccc3c2)CSSC[C@@H](C(=O)N[C@@H](Cc2ccc3ccccc3c2)C(N)=O)NC1=O [Analog #1, H2 -D-Nal-Cys-Tyr-D-Trp-Lys-Val-Cys-Nal-NH2] (H-[d2Nal]CY[dW]KVC[2Nal]-NH2; disulfide 2-7)
did not inhibit binding: inhibition of binding to TRH receptors (TRH receptor) | inhibition of binding to sigma opioid receptors (sigma opioid receptor) | inhibition of binding to endothelinA receptors (endothelinA) | inhibition of binding to benzodiazepine-neural receptors [1] | inhibition of binding to delta opioid receptors (delta opioid receptor) | inhibition of binding to benzodiazepine-peripheral receptors [2] | inhibition of binding to β1-adrenergic receptors (β1-adrenergic receptor) | inhibition of binding to muscarinic cholinergic receptors [3]
